A word on the IC50: it is the concentration that gives 50% inhibition.

For eight compounds, IC50 results are on record in ChEMBL document CHEMBL1250537, “Synthesis and biological evaluation of diastereoisomerically pure N,O-nucleosides” (Bioorg Med Chem, 2010).

What all share (type): functional, cell-based
One experiment concerns JIYOYE. The experiment is described as follows: Cytotoxicity against human EBV-positive Jijoye cells after 72 hrs by MTT assay. (In general: Tetrazolium assays rely on reduction of a dye to a coloured formazan, in cell work by metabolically active cells.)
Experiment [1] can be described thus: Cytotoxicity against human LCL cells after 72 hrs by MTT assay.
Another experiment concerns Jurkat. In words: Cytotoxicity against human Jurkat cells after 72 hrs by MTT assay.

Turning to `CN1O[C@@H](n2ccc(N)nc2=O)C[C@H]1c1ccccc1` (relative stereo), the IC50 (with JIYOYE; in experiment [1]; in the experiment on Jurkat) was over 100 µM in each case.
As for `Cc1cn([C@@H]2C[C@H](c3ccccc3)N(Cc3ccccc3)O2)c(=O)[nH]c1=O` (relative stereo), the figures for the IC50 (in the experiment on JIYOYE; in experiment [1]; with Jurkat) were 36.9 µM, 55.2 µM and 19.3 µM, respectively.
In the same order, the values of `Cc1cn([C@@H]2C[C@H](c3ccccc3)N(C(C)(C)C)O2)c(=O)[nH]c1=O` (relative stereo) are 68.8 µM, 87.1 µM and 72.2 µM.
In the same order, the values of `CN1O[C@@H](n2ccc(N)nc2=O)C[C@@H]1c1ccccc1` (relative stereo) are over 100 µM, over 100 µM and over 100 µM.
For `Cc1cn([C@@H]2C[C@H](c3ccccc3)N(C)O2)c(=O)[nH]c1=O` (relative stereo) the same measures were 60.9 µM, 82.5 µM and 76.6 µM.
For `CC(C)(C)N1O[C@H](n2cc(F)c(=O)[nH]c2=O)C[C@@H]1c1ccccc1` (relative stereo), the IC50 in the experiment with JIYOYE was 63.1 µM; in experiment [1], 67.5 µM; in the experiment with Jurkat, 60.6 µM.
With `Cc1cn([C@@H]2C[C@H](c3ccco3)N(C(C)(C)C)O2)c(=O)[nH]c1=O` (relative stereo), the half-maximal inhibitory concentration (IC50) (in the experiment with JIYOYE; in experiment [1]; in the experiment with Jurkat) was over 100 µM throughout.
In the case of `Cc1cn([C@@H]2C[C@H](c3ccccc3Cl)N(C)O2)c(=O)[nH]c1=O` (relative stereo), the IC50 in the experiment on JIYOYE was 28.5 µM; in experiment [1] it was 52.6 µM; in the experiment with Jurkat, 8.8 µM.
